Molecular target: T1, Cytochrome P450 (CYP3A4) (Homo sapiens, UniProt P08684)
T1 construct: human liver microsome (0.1 mg protein/mL); from tissue; host or cells: human liver microsomes
Assay: Measurement of cytochrome P450 (CYP3A4) enzyme inhibition activity in human liver microsome (inhibition tests I and II, midazolam substrate)
Format: in vitro ADME
Settings: for I (%) Remaining Rate I: inhibition test I: 5 μM test compound, 2 μM midazolam, human liver microsome, 37° C. 20 minutes, no preincubation; for II (%) Remaining Rate II: inhibition test II: 5 μM test compound preincubated 30 minutes with human liver microsome and NADPH, then 2 μM midazolam 20 minutes, relative to test I
Protocol: Test Method 3: Measurement of Cytochrome P450 (CYP3A4) Enzyme Inhibition Activity i) Inhibition Test I (Calculation of Remaining Rate I)
Using a 96-well plate, 2 μM of a substrate (midazolam), 5 μM of a test compound, and human liver microsome (0.1 mg protein/mL) were incubated at 37° C. for 20 minutes in a total amount of 150 μL of a 100 mM phosphate buffer (pH 7.4) containing 0.1 mM EDTA and 1 mM NADPH. Then, the reaction was stopped by adding 130 μl of an aqueous solution containing 80% acetonitrile. Thereafter, the samples were analyzed by LC/MS/MS, and the remaining rates I were calculated using the following equation 1.
Remaining Rate I(%)=Ai,I/Ao,I×100 (Equation 1)
Ai, I=Amount of produced metabolite after reaction in the presence of the test compound in the inhibition test I Ao, I=Amount of produced metabolite after reaction in the absence of the test compound in the inhibition test I ii) Inhibition Test II (Calculation of Remaining Rate II)
Using a 96-well plate, 5 μM of a test compound and human liver microsome (0.1 mg protein/mL) were incubated at 37° C. for 30 minutes in a total amount of 145 μL of a 100 mM phosphate buffer (pH=7.4) containing 0.1 mM EDTA and 1 mM NADPH. Then, 2 μM of midazolam as the substrate was added thereto at a total amount of 150 μL of and incubated at 37° C. for 20 minutes. After the incubation, the reaction was stopped by adding 130 μL of an aqueous solution containing 80% acetonitrile. Thereafter, the samples were analyzed by LC/MS/MS, and the remaining rate II was calculated using the following equation 2.
Remaining Rate II(%)=Ai,II/Ao,II/(Ai,I/Ao,I)×100 (Equation 2)
Ai, II=Amount of produced metabolite after reaction in the presence of the test compound in the inhibition test II […]=Amount of produced metabolite after reaction in the absence of the test compound in the inhibition test II […]
Ex represents No. of the Example Compounds as described below.

T1 sequence (P08684 whole entry): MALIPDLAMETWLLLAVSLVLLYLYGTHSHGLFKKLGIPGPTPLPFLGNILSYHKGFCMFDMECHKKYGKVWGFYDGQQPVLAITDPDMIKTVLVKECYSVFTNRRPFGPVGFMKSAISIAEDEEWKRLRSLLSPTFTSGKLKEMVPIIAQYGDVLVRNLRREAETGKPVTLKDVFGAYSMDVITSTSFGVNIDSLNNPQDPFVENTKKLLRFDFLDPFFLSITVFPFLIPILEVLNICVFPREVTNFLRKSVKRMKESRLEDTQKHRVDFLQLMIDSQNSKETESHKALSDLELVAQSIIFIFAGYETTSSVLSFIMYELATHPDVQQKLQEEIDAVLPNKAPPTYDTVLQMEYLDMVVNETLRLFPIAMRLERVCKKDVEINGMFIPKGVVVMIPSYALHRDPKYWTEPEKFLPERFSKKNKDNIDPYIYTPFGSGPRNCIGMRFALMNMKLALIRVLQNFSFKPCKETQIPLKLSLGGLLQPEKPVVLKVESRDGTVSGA

SMILES | I (%) Remaining Rate I [%] | II (%) Remaining Rate II [%]
COc1ccccc1CNc1ncc(C#N)c(NC[C@]23CC4C[C@H](C2)[C@@H](N[C@H]2CC[C@H](O)CC2)[C@@H](C4)C3)n1 (relative stereo) [Example 62] | 87 | 81
CSc1ccccc1CNc1ncc(C#N)c(NC[C@]23CC4C[C@H](C2)[C@@H](NC2CCC(O)CC2)[C@@H](C4)C3)n1 (relative stereo) [Example 68, rel-4-[({(1S,3R,4S,5S)-4-[(4-hydroxycyclohexyl)amino]adamantan-1-yl}methyl)amino]-2-{[2-(methylsulfanyl)benzyl]amino}pyrimidine-5-carbonitrile] | 82 | 90
COCCN1CCC(N[C@@H]2[C@@H]3CC4C[C@H]2C[C@@](CNc2nc(NCc5ccccc5Cl)ncc2C#N)(C4)C3)CC1 (relative stereo) [Example 210] | 77 | 94
N#Cc1cnc(NCc2ccccc2Cl)nc1NC[C@]12CC3C[C@H](C1)[C@@H](NC1CCN(CCF)CC1)[C@@H](C3)C2 (relative stereo) [Example 212] | 81 | 85
N#Cc1cnc(NCc2ccccc2Cl)nc1NC[C@]12CC3C[C@H](C1)[C@@H](NCC1CCN(CCO)CC1)[C@@H](C3)C2 (relative stereo) [Example 216] | 92 | 90
N#Cc1cnc(NCc2ccccc2Cl)nc1NC[C@]12CC3C[C@H](C1)[C@@H](N[C@H]1CC[C@@H](NCCO)CC1)[C@@H](C3)C2 (relative stereo) [Example 220, rel-2-[(2-chlorobenzyl)amino]-4-({[(1R,3S,4R,5R)-4-({cis-4-[(2-hydroxyethyl)amino]cyclohexyl}amino)adamantan-1-yl]methyl}amino)pyrimidine-5-carbonitrile] | 82 | 85
CSc1ccccc1CNc1ncc(C#N)c(NC[C@]23CC4C[C@H](C2)C(NC[C@H]2CC[C@H](O)CC2)[C@@H](C4)C3)n1 (relative stereo) [Example 228] | 79 | 91
COc1ncccc1CNc1ncc(C#N)c(NC[C@]23CC4C[C@H](C2)C(N[C@H]2CC[C@H](CO)CC2)[C@@H](C4)C3)n1 (relative stereo) [Example 232] | 88 | 94
N#Cc1cnc(NCc2ccccc2Cl)nc1NC[C@]12CC3C[C@H](C1)[C@@H](NC1CCC(N4CCC[C@@H]4CO)CC1)[C@@H](C3)C2 (relative stereo) [Example 238] | 75 | 81
CN1CCC(N[C@@H]2[C@@H]3CC4C[C@H]2C[C@@](CNc2nc(NCc5ccccc5Cl)ncc2C#N)(C4)C3)CC1 (relative stereo) [Example 248] | 88 | 82
COc1ncccc1CNc1ncc(C#N)c(NC[C@]23CC4C[C@H](C2)[C@@H](NC2CCC(O)CC2)[C@@H](C4)C3)n1 (relative stereo) [Example 252] | 85 | 80
CSc1ncccc1CNc1ncc(C#N)c(NC[C@]23CC4C[C@H](C2)[C@@H](NC2CCC(O)CC2)[C@@H](C4)C3)n1 (relative stereo) [Example 258] | 88 | 90
N#Cc1cnc(NCc2ccccc2Cl)nc1NC[C@]12CC3C[C@H](C1)[C@@H](NC1CCN(C4CCOCC4)CC1)[C@@H](C3)C2 (relative stereo) [Example 266] | 83 | 99
CC(=O)N1CCC(N[C@H]2CC[C@@H](N[C@@H]3[C@@H]4CC5C[C@H]3C[C@@](CNc3nc(NCc6ccccc6Cl)ncc3C#N)(C5)C4)CC2)CC1 (relative stereo) [Example 281, rel-4-({[(1R,3S,4R,5R)-4-({cis-4-[(1-acetylpiperidin-4-yl)amino]cyclohexyl}amino)adamantan-1-yl]methyl}amino)-2-[(2-chlorobenzyl)amino]pyrimidine-5-carbonitrile] | 89 | 83
N#Cc1cnc(NCc2ccccc2Cl)nc1NC[C@]12CC3C[C@H](C1)[C@@H](N[C@H]1CC[C@@H](NC4CCOCC4)CC1)[C@@H](C3)C2 (relative stereo) [Example 282] | 81 | 91
CSc1ccccc1CNc1ncc(C#N)c(NC[C@]23CC4C[C@H](C2)[C@@H](NC2CCNCC2)[C@@H](C4)C3)n1 (relative stereo) [Example 290] | 85 | 88

SMILES | I (%) Remaining Rate I [%] | II (%) Remaining Rate II [%]
CC1(N)CCC(N[C@@H]2[C@@H]3CC4C[C@H]2C[C@@](CNc2nc(NCc5ccccc5Cl)ncc2C#N)(C4)C3)CC1 (relative stereo) [Example 314] | 85 | 84
CNC1CCC(N[C@@H]2[C@@H]3CC4C[C@H]2C[C@@](CNc2nc(NCc5ccccc5Cl)ncc2C#N)(C4)C3)CC1 (relative stereo) [Example 316] | 85 | 84
N#Cc1cnc(NCc2ccccc2OC(F)(F)F)nc1NC[C@]12CC3C[C@H](C1)[C@@H](NCC1CCNCC1)[C@@H](C3)C2 (relative stereo) [Example 329] | 92 | 95
CSc1ccccc1CNc1ncc(C#N)c(NC[C@]23CC4C[C@H](C2)[C@@H](NC[C@H]2CC[C@H](CO)CC2)[C@@H](C4)C3)n1 (relative stereo) [Example 339] | 78 | 94
COc1ncccc1CNc1ncc(C#N)c(NC[C@]23CC4C[C@H](C2)[C@@H](NC[C@H]2CC[C@H](CO)CC2)[C@@H](C4)C3)n1 (relative stereo) [Example 343] | 78 | 91
COc1ncccc1CNc1ncc(C#N)c(NC[C@]23CC4C[C@H](C2)[C@@H](NC[C@H]2CC[C@H](O)CC2)[C@@H](C4)C3)n1 (relative stereo) [Example 345] | 94 | 81
COc1ccccc1CNc1ncc(C#N)c(NC[C@]23CC4C[C@H](C2)[C@@H](NCC[C@@H](O)CO)[C@@H](C4)C3)n1 (relative stereo) [Example 352] | 94 | 81
C[C@]1(O)CC[C@H](CN[C@@H]2[C@@H]3CC4C[C@H]2C[C@@](CNc2nc(NCc5ccccc5Cl)ncc2C#N)(C4)C3)CC1 (relative stereo) [Example 370] | 81 | 85
COc1ccccc1CNc1ncc(C#N)c(NC[C@]23CC4C[C@H](C2)[C@@H](NC2CCC(C)(O)CC2)[C@@H](C4)C3)n1 (single isomer, unassigned) [Example 119] | 77 | 80
N#Cc1cnc(NCc2ccccc2Cl)nc1NC[C@]12CC3C[C@H](C1)[C@@H](NC1CCC(O)CC1)[C@@H](C3)C2 (stereo partly shown) [Example 95] | 84 | 81
N#Cc1cnc(NCc2ccccc2Cl)nc1NC[C@]12CC3C[C@H](C1)[C@@H](NC1CCN(CCO)CC1)[C@@H](C3)C2 [Example 209] | 79 | 92
CSc1ccccc1CNc1ncc(C#N)c(NC[C@]23CC4C[C@H](C2)C(NC[C@H]2CC[C@H](CO)CC2)[C@@H](C4)C3)n1 (stereo partly shown) [Example 229] | 80 | 95
CCN1CCC(N[C@@H]2[C@@H]3CC4C[C@H]2C[C@@](CNc2nc(NCc5ccccc5Cl)ncc2C#N)(C4)C3)CC1 [Example 249] | 82 | 83
N#Cc1cnc(NCc2cnccc2Cl)nc1NC[C@]12CC3C[C@H](C1)[C@@H](NC1CCC(O)CC1)[C@@H](C3)C2 (stereo partly shown) [Example 251] | 75 | 85
CSc1ccccc1CNc1ncc(C#N)c(NC[C@]23CC4C[C@H](C2)[C@@H](NC[C@H]2CC[C@H](O)CC2)[C@@H](C4)C3)n1 [Example 263] | 91 | 87
CNC1CCC(N[C@@H]2[C@@H]3CC4C[C@H]2C[C@@](CNc2nc(NCc5ccccc5Cl)ncc2C#N)(C4)C3)CC1 (stereo partly shown) [Example 315] | 85 | 86
